We go through 19 compounds from PubChem BioAssay AID330 (DTP/NCI, 2004).

The assay relates to P388 leukemia ip, CD2F1 mice, survival T/C. Description: NCI In Vivo Anticancer Drug Screen. Data for tumor model P388 Leukemia (intraperitoneal) in CD2F1 (CDF1) mice. The following applies: endpoint: median survival time, higher = longer survival. A digest of the protocol:
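Mice carrying the transplanted tumor received test compound or vehicle. Survival was recorded in each group, and the value is the treated-group measurement divided by that of the vehicle-treated control group.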

The mark [1] stands for this setting: dose: 200.0 mg/kg/injection, schedule: Q01DX009 (ip), vehicle: other.
[2] abbreviates: dose: 100.0 mg/kg/injection, schedule: Q04DX002 (ip), vehicle: Klucel (hydroxypropylcellulose) (HPC).
[3] abbreviates: dose: 200.0 mg/kg/injection, schedule: Q04DX002 (ip), vehicle: Klucel (hydroxypropylcellulose) (HPC).
[4] abbreviates: dose: 400.0 mg/kg/injection, schedule: Q04DX002 (ip), vehicle: Klucel (hydroxypropylcellulose) (HPC).
Where [5] appears, read: dose: 100.0 mg/kg/injection, schedule: Q04DX002 (ip), vehicle: saline with Tween-80.
The mark [6] stands for this setting: dose: 50.0 mg/kg/injection, schedule: Q01DX009 (ip), vehicle: Klucel (hydroxypropylcellulose) (HPC).
Where [7] appears, read: dose: 100.0 mg/kg/injection, schedule: Q01DX009 (ip), vehicle: Klucel (hydroxypropylcellulose) (HPC).
The mark [8] stands for this setting: dose: 200.0 mg/kg/injection, schedule: Q01DX009 (ip), vehicle: Klucel (hydroxypropylcellulose) (HPC).
Where [9] appears, read: dose: 100.0 mg/kg/injection, schedule: Q01DX009 (ip), vehicle: saline with Tween-80.
Setting [10] is: dose: 200.0 mg/kg/injection, schedule: Q01DX009 (ip), vehicle: saline with Tween-80.

The structures appear in SMILES notation. Values joined by “and” are separate entries in the source; they are usually repeats but may differ in a detail not shown here. Equal entries are not always repeated. Toxic doses and inconclusive results are not listed.

`NNC(=S)NCCN1CCOCC1`: the T/C was 105 % of control (dose: 50.0 mg/kg/injection, schedule: Q01DX005 (ip), vehicle: saline); 105 % of control (dose: 100.0 mg/kg/injection, schedule: Q01DX005 (ip), vehicle: saline); 100 % of control (dose: 200.0 mg/kg/injection, schedule: Q01DX005 (ip), vehicle: saline).

For the compound `CN(C)C(=O)C1CCC(=O)N1` (stereo unspecified), the T/C runs as follows: (dose: 60.0 mg/kg/injection, schedule: Q01DX005 (ip), vehicle: saline) 100 % of control; (dose: 120.0 mg/kg/injection, schedule: Q01DX005 (ip), vehicle: saline) 109 % of control; (dose: 240.0 mg/kg/injection, schedule: Q01DX005 (ip), vehicle: saline) 105 % of control.

Turning to `O=C(COc1ccc(Cl)cc1)OC(=O)COc1ccc(Cl)cc1`, the T/C was 110 % of control (dose: 25.0 mg/kg/injection, schedule: Q01DX009 (ip), vehicle: other); 112 % of control (dose: 50.0 mg/kg/injection, schedule: Q01DX009 (ip), vehicle: other); 110 % of control (dose: 100.0 mg/kg/injection, schedule: Q01DX009 (ip), vehicle: other); 106 % of control under setting [1].

On to `CCN(CC)C1=NS(=O)(=O)c2ccccc2C(=O)C1C` (stereo unspecified), for which the T/C runs as follows: under setting [2], 102 % of control; under setting [3], 100 % of control; under setting [4], 100 % of control.

Consider `COc1cc2c(c3c1C(=O)c1c(cc4c(c1O)C(OC)CC(C)(O)C4)C3=O)OC1OC2(C)C(O)C(N(C)C)C1O` (stereo unspecified), for which the T/C runs as follows: (dose: 1.25 mg/kg/injection, schedule: Q01DX009 (ip), vehicle: other) 117 % of control; (dose: 2.5 mg/kg/injection, schedule: Q01DX009 (ip), vehicle: other) 98 % of control; (dose: 5.0 mg/kg/injection, schedule: Q01DX009 (ip), vehicle: other) 102 % of control; (dose: 20.0 mg/kg/injection, schedule: Q01DX009 (ip), vehicle: other) 124 % of control; (dose: 40.0 mg/kg/injection, schedule: Q01DX009 (ip), vehicle: other) 123 % of control; under setting [1], 179 % of control.

With `C[Se]C(C)(C)C(O)(Cc1ccccc1)c1ccccc1` (stereo unspecified), the T/C reads like this: (dose: 25.0 mg/kg/injection, schedule: Q04DX002 (ip), vehicle: saline with Tween-80) 88 % of control; (dose: 50.0 mg/kg/injection, schedule: Q04DX002 (ip), vehicle: saline with Tween-80) 94 % of control; under setting [5], 101 % of control.

As for `CCCCOc1cc2c(cc1C(C)c1ccc(OC)cc1)OCO2` (stereo unspecified), the T/C runs as follows: (dose: 50.0 mg/kg/injection, schedule: Q01DX005 (ip), vehicle: distilled water + alcohol) 96 % of control; (dose: 100.0 mg/kg/injection, schedule: Q01DX005 (ip), vehicle: distilled water + alcohol) 95 % of control; (dose: 200.0 mg/kg/injection, schedule: Q01DX005 (ip), vehicle: distilled water + alcohol) 96 % of control.

`CCn1c(=O)c2[nH]c(Cl)nc2n(CCCOC)c1=O`: the T/C was 101 % of control under setting [2], 95 % of control under setting [3] and 87 % of control under setting [4].

With `COC(=O)C1C/C=C\C=C/N(C)C1=O` (stereo unspecified), the T/C runs as follows: under setting [5], 102 % of control; (dose: 200.0 mg/kg/injection, schedule: Q04DX002 (ip), vehicle: saline with Tween-80) 101 % of control; (dose: 400.0 mg/kg/injection, schedule: Q04DX002 (ip), vehicle: saline with Tween-80) 101 % of control.

As to `COc1cccc2c1C(=O)c1c(O)c3c(c(O)c1C2=O)CC(O)(C(C)=O)CC3OC1CC(NC2CCOCC2)C(O)C(C)O1` (stereo unspecified), the T/C was 101 % of control (dose: 3.12 mg/kg/injection, schedule: Q04DX003 (ip), vehicle: water); 101 % of control and 107 % of control (dose: 6.25 mg/kg/injection, schedule: Q04DX003 (ip), vehicle: water); 102 % of control and 107 % of control (dose: 12.5 mg/kg/injection, schedule: Q04DX003 (ip), vehicle: water); 118 % of control (dose: 25.0 mg/kg/injection, schedule: Q04DX003 (ip), vehicle: water); 120 % of control (dose: 50.0 mg/kg/injection, schedule: Q04DX003 (ip), vehicle: water); 111 % of control (dose: 200.0 mg/kg/injection, schedule: Q04DX003 (ip), vehicle: water).

As for `O=C(/C=C/c1ccccc1)c1c2ccccc2cc2ccccc12`, the T/C was 107 % of control (dose: 100.0 mg/kg/injection, schedule: Q01DX001 (ip), vehicle: saline with Tween-80); 100 % of control (dose: 200.0 mg/kg/injection, schedule: Q01DX001 (ip), vehicle: saline with Tween-80); 91 % of control (dose: 400.0 mg/kg/injection, schedule: Q01DX001 (ip), vehicle: saline with Tween-80).

Regarding `CN(C)CSc1nc2ccccc2s1`, the T/C reads like this: under setting [6], 96 % of control; under setting [7], 94 % of control; under setting [8], 94 % of control; (dose: 400.0 mg/kg/injection, schedule: Q01DX009 (ip), vehicle: Klucel (hydroxypropylcellulose) (HPC)) 95 % of control.

On to `CNc1nc(C)nc(NC)n1`, for which the T/C reads like this: under setting [6], 91 % of control; under setting [7], 93 % of control; under setting [8], 90 % of control.

As to `Nc1nc(Cl)c(Cl)nc1N`, the T/C is 110 % of control (dose: 50.0 mg/kg/injection, schedule: Q01DX009 (ip), vehicle: saline with Tween-80); 100 % of control (dose: 50.0 mg/kg/injection, schedule: Q04DX003 (ip), vehicle: saline with Tween-80); 105 % of control under setting [9]; 100 % of control (dose: 100.0 mg/kg/injection, schedule: Q04DX003 (ip), vehicle: saline with Tween-80); 110 % of control under setting [10]; 95 % of control (dose: 200.0 mg/kg/injection, schedule: Q04DX003 (ip), vehicle: saline with Tween-80).

On to `CN(C)c1ccc(/C=N/O)cc1`, for which the T/C is, setting by setting: (dose: 12.5 mg/kg/injection, schedule: Q01DX009 (ip), vehicle: Klucel (hydroxypropylcellulose) (HPC)) 86 % of control; (dose: 25.0 mg/kg/injection, schedule: Q01DX009 (ip), vehicle: Klucel (hydroxypropylcellulose) (HPC)) 101 % of control and 103 % of control and 110 % of control; under setting [6], 103 % of control and 113 % of control; under setting [7], 104 % of control and 113 % of control; under setting [8], 96 % of control.

Take `COc1ccc(OC(=O)CCCl)cc1`: the T/C was 113 % of control under setting [9]; 108 % of control under setting [10]; 104 % of control (dose: 400.0 mg/kg/injection, schedule: Q01DX009 (ip), vehicle: saline with Tween-80).

For the compound `CC1=CC(C)CN(C)C1` (stereo unspecified), the T/C runs as follows: (dose: 6.25 mg/kg/injection, schedule: Q01DX005 (ip), vehicle: saline) 102 % of control; (dose: 12.5 mg/kg/injection, schedule: Q01DX005 (ip), vehicle: saline) 100 % of control; (dose: 25.0 mg/kg/injection, schedule: Q01DX005 (ip), vehicle: saline) 105 % of control.

For `CC(=O)N1NC(=O)c2c(c3cc(OCc4ccccc4)ccc3n2C)C1C(C)C` (stereo unspecified), the T/C is 98 % of control (dose: 30.0 mg/kg/injection, schedule: Q04DX002 (ip), vehicle: Klucel (hydroxypropylcellulose) (HPC)); 96 % of control (dose: 60.0 mg/kg/injection, schedule: Q04DX002 (ip), vehicle: Klucel (hydroxypropylcellulose) (HPC)); 96 % of control (dose: 120.0 mg/kg/injection, schedule: Q04DX002 (ip), vehicle: Klucel (hydroxypropylcellulose) (HPC)).

Regarding `COC(=O)C1=C[C@H]2O[C@H]2[C@H](O)C1`, the T/C (dose: 1.5 mg/kg/injection, schedule: Q01DX005 (ip), vehicle: Klucel (hydroxypropylcellulose) (HPC)) is 100 % of control; the T/C (dose: 3.0 mg/kg/injection, schedule: Q01DX005 (ip), vehicle: Klucel (hydroxypropylcellulose) (HPC)) is 106 % of control; the T/C (dose: 6.0 mg/kg/injection, schedule: Q01DX005 (ip), vehicle: Klucel (hydroxypropylcellulose) (HPC)) was 101 % of control; the T/C (dose: 12.0 mg/kg/injection, schedule: Q01DX005 (ip), vehicle: Klucel (hydroxypropylcellulose) (HPC)) was 100 % of control.
